Results published in US6867186B2, “Cell-permeable protein inhibitors of calpain” (New England Medical Center Hospital, priority 1997, dated 2005).

How the values were obtained:
calpain = experiment: Ionophore-dependent calpain degradation of ABP and talin in platelets; assay type: cell-based; conditions: 5, 8, or 10 minutes A23187
Description: To investigate whether calpastat inhibits calpain activity in platelets, the ionophore-dependent proteolysis of actin binding protein (ABP; about 280 kDa) and talin (about 240 kDa), both of which are substrates of both μ- and m-calpains, was examined as follows.
Platelets were pre-incubated with ZLLYCHN2, DMSO (solvent for ZLLY-CHN2), calpastat, or HEPES buffer (buffer for calpastat), and then treated with or without ionophore A23187 for 5, 8, or 10 minutes. The platelets were then gel-purified as described above. Whole cell lysates were prepared and fractionated by SDS polyacrylamide gel electrophoresis.

[1] = tested on: platelet rich plasma (PRP); experiment: Platelet disk-to-sphere shape change after cold storage (ESC assay); assay type: cell-based; set-up: cold storage of PRP, extent of shape change (ESC): dose or concentration left out as unconfirmed
Description: Disk-to-sphere shape change was then assayed using the extent of shape change (ESC) assay (Holme et al., Transfusion 38:31-40, 1998). Briefly, samples of stored PRP were treated to induce disk-to-sphere shape change by cold storage and the addition of EDTA (to prevent aggregation). ADP was then added as a stimulus to measure ESC, and shape change was measured by determining light transmission through the sample. If the initial storage conditions caused considerable disk-to-sphere shape change, there would be little additional shape change upon addition of EDTA and ADP. Conversely, if the initial storage conditions caused little disk-to-sphere shape change, there would be considerable additional shape change upon addition of EDTA and ADP. The results of three experiments in which 24 hour storage of platelets at 4° C. was tested, in the presence and absence of calpastat, are shown in FIG. 12. The bracket labelled “fresh CDP” indicates the ESC that can be expected for fresh PRP in CPD, and the bracket marked “cold EDTA-treated PRP” indicates the ESC that can be expected for PRP subjected to cold storage in EDTA.
The day O control is an assay performed on fresh PRP with no cold storage in standard buffer.

## H-AAVALLPAVLLALLAPEKLGERDDTIPPEYRELLEKKTGV-OH [Calpastat]
calpain
  A23187-dependent calpain degradation of ABP and talin in platelets: inhibited
[1]; about 24 hours at 4° C., compared to EDTA
  cold storage of PRP, extent of shape change (ESC): significantly improved cold storage
[1]; five days at 4° C.
  protection against disk-to-sphere shape change: considerable protection
